Publication PMC9176790 (PLoS Pathogens, 2022)

Target: RaaR (RSp0912) (Ralstonia pseudosolanacearum, UniProt Q8XRE2)
Test: biochemical

Sequence of RaaR (RSp0912) (Q8XRE2 1-313 limits assumed): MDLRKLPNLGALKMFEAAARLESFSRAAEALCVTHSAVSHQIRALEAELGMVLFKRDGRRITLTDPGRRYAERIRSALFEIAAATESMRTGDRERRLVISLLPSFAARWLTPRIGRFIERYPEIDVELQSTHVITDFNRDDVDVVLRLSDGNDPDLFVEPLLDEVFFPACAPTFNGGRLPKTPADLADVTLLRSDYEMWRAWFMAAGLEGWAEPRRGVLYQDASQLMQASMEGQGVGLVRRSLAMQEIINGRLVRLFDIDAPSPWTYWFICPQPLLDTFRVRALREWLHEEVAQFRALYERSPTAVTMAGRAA

With Nc1ccccc1C(=O)O [anthranilic acid] the Kd was 3.63 µM.
